Experimental data as given in patent publication US12173309B2, “Compounds for increasing genome editing efficiency” (Max-Planck-Gesellschaft zur Förderung der Wissenschaften …, priority 2017, dated 2024).

Legend:
[1] = tested on: 409-B2 iCRISPR-Cas9D10A iPSCs; assay: Precise genome editing (PGE) efficiency with iCRISPR Cas9D10A double nicking and ssODN donors, Illumina sequencing/CRISPResso; type: cell-based, human; conditions: Cas9D10A; for PGE increase (mean change vs control): 20 μM NU7026, 0.01 μM TSA, 0.5 μM MLN4924, 5 μM NSC 15520, CRISPY mix = all four
Experimental: (§1) FIG. 1: Genome editing and analysis flowchart. iCRISPR 409-B2 iPSCs are treated with 2 μg/ml doxycycline at least for 2 days to induce Cas9 or Cas9D10A expression. Reverse transfection with RNAiMAX, gRNA (7.5 nM each), ssODN (10 nM) and the small molecules to be evaluated is carried out in a 96 well plate for 1 day. The amount of cells used gives ˜80% confluency. Cells are then expanded for 3 days with regular media change. After harvest follows DNA extraction, PCR amplification of targeted loci, Illumina sequencing and CRISPResso (Pinello et al. 2016) sequence analysis for amount of indels and precise genome editing.
(§2) Cells were incubated with media containing 2 μg/ml doxycycline (Clontech, 631311) 2 days prior to lipofection. Lipofection (reverse transfection) was done using the alt-CRISPR manufacturer's protocol (IDT) with a final concentration of 7.5 nM of each gRNA and 10 nM of the respective ssODN. In brief, 0.75 μl RNAiMAX (Invitrogen, 13778075) and the respective oligonucleotides were separately diluted in 25 μl OPTI-MEM (Gibco, 1985-062) each and incubated at room temperature for 5 min. Both dilutions were mixed to yield 50 μl of OPTI-MEM including RNAiMAX, gRNAs and ssODNs. The lipofection mix was incubated for 20-30 min at room temperature. During incubation cells were dissociated using EDTA for 5 min and counted using the Countess Automated Cell Counter (Invitrogen). The lipofection mix, 100 μl containing 25.000 dissociated cells in mTeSR1 supplemented with Y-27632, 2 μg/ml doxycycline and the respective small molecule(s) to be tested were throughoutly mixed and put in one well of a 96 well covered with Matrigel Matrix (Corning, 35248). Media was exchanged to regular mTeSR1 media after 24 hours.
(§3) Three days after lipofection cells were dissociated using Accutase (SIGMA, A6964), pelleted, and resuspended in 15 μl QuickExtract (Epicentre, QE0905T). Incubation at 65° C. for 10 min, 68° C. for 5 min and finally 98° C. for 5 min was performed to yield ssDNA as a PCR template. Primers for each targeted loci of CALD1, KATNA1 and SLITRK1 containing adapters for Illumina sequencing were ordered from IDT (Coralville, USA). PCR was done in a T100 Thermal Cycler (Bio-Rad) using the KAPA2G Robust PCR Kit (Peqlab, 07-KK5532-03) with supplied buffer B and 3 μl of cell extract in a total volume of 25 μl. The thermal cycling profile of the PCR was: 95° C. 3 min; 34×(95° 15 sec, 65° C. 15 sec, 72° C. 15 sec); 72° C. 60 sec. P5 and P7 Illumina adapters with sample specific indices were added in a second PCR reaction (Kircher et al. 2012) using Phusion HF MasterMix (Thermo Scientific, F-531L) and 0.3 μl of the first PCR product. The thermal cycling profile of the PCR was: 98° C. 30 sec; 25× (98° 10 sec, 58° C. 10 sec, 72° C. 20 sec); 72° C. 5 min. Amplifications were verified by size separating agarose gel electrophoresis using EX gels (Invitrogen, G4010-11). The indexed amplicons were purified using Solid Phase Reversible Immobilization (SPRI) beads (Meyer, Kircher 2010). Double-indexed libraries were sequenced on a MiSeq (Illumina) giving paired-end sequences of 2×150 bp. After base calling using Bustard (Illumina) adapters were trimmed using leeHom (Renaud et al. 2014).
(§4) CRISPresso (Pinello et al. 2016) was used to analyse sequencing data from CRISPR genome editing experiments for percentage of wildtype, targeted nucleotide substitutions (TNS), indels and mix of TNS and indels. Parameters used for analysis were ‘-w 20’, ‘--min_identity_score 70’ and ‘--ignore_substitutions’ (analysis was restricted to amplicons with a minimum of 70% similarity to the wildtype sequence and to a window of 20 bp from each gRNA; substitutions were ignored, as sequencing errors would be falsely characterized as NHEJ-events). Sequencing data from colonies after single cell seeding (FIGS. 3B and C) was further analyzed by evaluating the actual read sequences using SAMtools. Clonal colonies were differentiated from mixed colonies using sequence read proportions. […]

[2] = tested on: 409-B2 iCRISPR-Cas9 iPSCs; assay: PGE efficiency with iCRISPR Cas9 and ssODN donors; type: cell-based, human
Experimental: as §1, §2, §3, §4

[3] = CALD1, 20 μM NU7026, 5 μM NSC 15520
[4] = KATNA1, 20 μM NU7026, 5 μM NSC 15520
[5] = SLITRK1, 20 μM NU7026, 5 μM NSC 15520

SMILES | PGE increase (mean change vs control) ([1]; CALD1) [fold] | additional increase in PGE on addition to the mix of NU7026 and TSA ([1]; 0.5 μM MLN4924, p<0.01) [fold] | PGE increase (mean change vs control) ([1]; KATNA1) | PGE increase (mean change vs control) ([1]; SLITRK1) | effect on PGE frequency over CALD1, KATNA1 and SLITRK1 compared to controls ([2]; 0.01 μM TSA, 0.5 μM MLN4924, 1 μM NSC 19630, 20 μM AICAR, 1 μM RS-1, 1 μM Resveratrol, 1 μM SCR7, 5 μM L755507, 5 μM STL127685, 20 μM B02) | effect on PGE of further addition to the mix of NU7026, TSA and MLN4924 ([1]; all loci, 5 μM NSC 15520, then 1 μM NSC 19630, 20 μM AICAR, 1 μM RS-1 (FIG. 5A)) | PGE increase (mean change vs control) [2, 3] [fold] | PGE increase (mean change vs control) [2, 4] | PGE increase (mean change vs control) [2, 5] | higher PGE frequency than without the molecules ([1]; pooled across CALD1, KATNA1, SLITRK1 (FIG. 5A), p<0.001) [fold]
NS(=O)(=O)OC[C@@H]1C[C@@H](n2ccc3c(N[C@H]4CCc5ccccc54)ncnc32)C[C@@H]1O [MLN4924, Pevonedistat] | 1.2 | 1.3 | 1.1 fold | 1.3 fold | slight diminishing effect | – | – | – | – | –
CC(C)C1=CC23CCC4C(C)(C(=O)O)CCCC4(C)C2CC1C(C(=O)O)C3C(=O)O (stereo not shown) [NSC 15520, Fumaropimaric acid] | 1.4 | – | no effect | no effect | – | slightly increased | 1.3 | no effect | no effect | –
O=c1cc(N2CCOCC2)oc2c1ccc1ccccc12 [NU7026] | 1.5 | – | 2.6 fold | 2.5 fold | – | – | 1.5 | 1.6 fold | 1.2 fold | 2.3
